Experimental data: patent US11980598B2, “N-(2-(substituted-naphth-1-yl)ethyl) substituted amide compound, preparation and uses thereof” (BEIJING GREATWAY PHARMACEUTICAL TECHNOLOGY CO., LTD., priority 2017, dated 2024)

How the values were obtained:
CYP1A2 = CYP1A2 (Homo sapiens (Human), UniProt P05177); conditions: cited from earlier work
[1] = biological target: human MT2 receptor membrane protein (Homo sapiens (Human), UniProt P49286); test: MT2 receptor binding test ([3H]-Melotonin competition)
Sequence of human MT2 receptor membrane protein (P49286 whole entry): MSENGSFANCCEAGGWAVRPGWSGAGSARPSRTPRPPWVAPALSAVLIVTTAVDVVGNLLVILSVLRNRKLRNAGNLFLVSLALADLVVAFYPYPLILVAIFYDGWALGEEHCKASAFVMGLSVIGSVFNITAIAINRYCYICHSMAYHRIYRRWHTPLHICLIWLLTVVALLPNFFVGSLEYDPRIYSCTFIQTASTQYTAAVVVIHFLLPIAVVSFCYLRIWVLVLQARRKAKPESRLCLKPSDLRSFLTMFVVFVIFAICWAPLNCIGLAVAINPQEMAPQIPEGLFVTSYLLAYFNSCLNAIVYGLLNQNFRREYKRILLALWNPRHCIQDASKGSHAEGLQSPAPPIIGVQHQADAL
Procedure: The receptors included a MT1/MT2 receptor and a 5-HT2C receptor. The test was divided into two parts: prescreening and rescreening. The results of prescreening were expressed as the percentage of binding, and the results of rescreening were expressed as the IC50 value (in M, i.e., mol/L).
(3) Tris-HCl buffer formulation: 50 mM Tris-HCl Buffer, 1 mM EDTA, 5 mM MgCl2, 0.1% NaN3, and then a certain proportion of PMSF was added to make pH 7.4.
(4) The example compound to be tested was dissolved in DMSO and formulated as a stock solution of 10^−2 M, and then diluted with distilled water to a concentration gradient of […]. The prescreening of the MT receptor binding test was performed at the concentration of 10^−5 M; the prescreening of the 5-HT2C receptor binding test was performed at the concentrations of 10^−5 and 10^−7 M.
The statistical analysis was performed using GraphPad Prism 5.0 software. The formula for receptor binding test was: inhibition (%)=[(total CPM of binding−CPM of tube with drug)/(total CPM of binding−non-specific CPM)]×100%, wherein CPM was count of a radioactive intensity.
10 μL of receptor membrane protein MT1 or MT2 was added to all the tubes. In non-specific binding tubes, 50 μL of a corresponding unlabeled ligand Ago at a concentration of 10^4 M was added to a final concentration of 10 μM, and pre-reacted for 30 minutes. In test tubes, 30 μL of test drug (MT1: a concentration of 10^4-10^−10 M, MT2: a concentration of […]) was added, respectively; all tubes were added with 40 μL [^3H]-Melotonin, respectively. […] The filter paper was taken out and dried by baking, and then placed in a scintillation bottle. 1 mL of the scintillation liquid was added, and the radioactive intensity was measured by a liquid scintillation counter.

Sequence of CYP1A2 (P05177 whole entry): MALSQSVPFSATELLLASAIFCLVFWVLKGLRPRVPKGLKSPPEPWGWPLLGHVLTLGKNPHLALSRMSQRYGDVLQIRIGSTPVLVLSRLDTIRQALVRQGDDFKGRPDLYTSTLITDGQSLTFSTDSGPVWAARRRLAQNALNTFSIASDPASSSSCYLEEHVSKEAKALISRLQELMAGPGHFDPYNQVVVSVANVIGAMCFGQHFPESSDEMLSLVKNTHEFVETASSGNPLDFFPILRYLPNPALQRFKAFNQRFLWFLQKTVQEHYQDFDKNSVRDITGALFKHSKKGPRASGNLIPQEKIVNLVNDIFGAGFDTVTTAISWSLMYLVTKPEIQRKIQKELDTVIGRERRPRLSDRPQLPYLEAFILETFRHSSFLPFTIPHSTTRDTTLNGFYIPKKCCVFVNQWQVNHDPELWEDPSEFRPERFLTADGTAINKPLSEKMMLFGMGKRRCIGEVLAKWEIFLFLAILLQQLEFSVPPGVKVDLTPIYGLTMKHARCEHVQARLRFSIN

SMILES	share metabolized by CYP1A2 (CYP1A2)	MT2 binding ratio (I %) ([1]; prescreening, 10^−5 M) [%]	IC50 ([1]; rescreening) [nM]
COc1ccc2cccc(CCNC(C)=O)c2c1 [Agomelatine, reference compound]	about 90%		
[2H]C([2H])([2H])Oc1cc2c(CCNC(C)=O)cccc2cc1Cl [Example 1, N-(2-(6-chloro-7-deuteromethoxy-naphthalen-1-yl)ethyl)acetamide]		98	0.72 ± 0.13
